Experimental data reported in US20210253520A1, “POLYMYXIN-BASED COMPOUNDS USEFUL AS ANTIBACTERIAL AGENTS” (UNIVERSITAT DE BARCELONA, priority 2018, published 2021).
Values after ≈ are worked out from the molar mass of the structure shown. Like-named read-outs stand apart in the source and are kept apart here. Numbered stars: 1 amine (or outer) side, 2 acyl side, 3 side chain; on linkers, the order of the positions; unused ones are H or OH. Bridge positions count the residues as written; N and C are the ends. Square brackets hold non-standard residues; d marks the D form. Peptide text beside a SMILES is read from it. * marks the point of attachment. X1 = C[C@@H](O)[C@@H](CS[*:1])N[*:2]; Hica(2S) = CC(C)C[C@H](O)C(=O)O; Octanoyl = CCCCCCCC(=O)*; Dab = NCC[C@H](N)C(=O)O

What was measured:
[1] = tested on: E. coli ATCC 25922; assay: microbe, parasite or virus in culture; type: cell-based
Description: (§1) The antibacterial activity of the polymyxin lipopeptides was measured at ISGlobal following the microdilution test to determine the Minimal Inhibitory Concentrations (MIC) in sterile 96-well polypropilene plates. The concentration range was 32 a […] in Iso-Sensitest broth (Oxoid, ThermoFisher). The results were carried out in triplicate and the highest MIC is the one shown. Bacterial strains were grown in blood agar plates at 37° C. for 17 h. Fresh colonies were used to prepare a McFarland 0.5 solution that was finally added to the plates at 1 to 100 dilution
(§2) Samples of sensitive and multi-drug resistant bacteria were: E. coli ATCC 25922 E. coli MB1410; K. pneumoniae MB674; P. aeruginosa ATCC 27853; P. aeruginosa 36A.

[2] = tested on: E. coli MB1410; assay: microbe, parasite or virus in culture; type: cell-based; conditions: for MIC: Escherichia coli
Description: as §1, §2

[3] = tested on: P. aeruginosa ATCC 27853; assay: microbe, parasite or virus in culture; type: cell-based; conditions: for MIC: resistance profile of strain P. aeruginosa ATCC 27853, Table 3
Description: as §1, §2

[4] = tested on: P. aeruginosa 36A; assay: microbe, parasite or virus in culture; type: cell-based; conditions: for MIC: resistance profile of strain P. aeruginosa 36A, Table 3
Description: as §1, §2

[5] = tested on: K. pneumoniae MB674; type: cell-based; conditions: for MIC: resistance profile of strain K. pneumoniae MB674, Table 3
Description: as §1, §2

[6] = tested on: Swiss CD-1 female mice; assay: Nephrotoxicity study, histopathological scoring of kidney lesions; type: in vivo; set-up: key to Group Score (GS): mean of per-animal summed 0-4 lesion scores; higher = more nephrotoxic
Description: Swiss CD-1 female mice weighing approximately 20-24 g (JANVIER Labs) were used, housed in an individually ventilated cage system under specific pathogen-free conditions, and water and food supplied ad libitum. This study plan and the conduct of the study were subjected to review by the Scientific Park of Barcelona Ethical Review Process with the current study procedure Code CEEA (AR) 9377-P2. Mice were administered at a dose of 12 mg/Kg every 2 hours for a total of 6 administrations (total dose 72 mg/Kg), unless otherwise stated. After 20 h, animals were anesthesized with isoflurane, kidneys extracted and prepared for histopathological evaluation, and finally animales were sacrificed. Kidney lesions (tubule dilation, necrosis, tubule casts, cell vacuolization, cell desquamation, and cell swelling) were quantified by microscopical observation (see for instance, Roberts, ACS Infect. Dis., 2015, 1, 568). Each one of these parameters was scored with values from 0 to 4 for each animal, as a global result of observations in kidney. Partial scores have been added up to obtain a final score for each animal (Animal Score, AS). The mean of animal score has been obtained to define the Group Score (GS). The higher the score, the more nephrotoxic a compound is. The nephrotoxicity score has been determined as according to the following table of approximated values: […]

[7] = Pseudomonas aeruginosa, ATCC27853, read-out: MIC
[8] = Escherichia coli, ATCC25922, resistance profile of strain E. coli ATCC 25922, Table 3, read-out: MIC
[9] = resistance profile of strain E. coli ATCC 25922, Table 3
[10] = Table 8, 12 mg/Kg every 2 hours × 6 sc, total 72 mg/Kg, 3 mice
[11] = resistance profile of strain E. coli MB1410, Table 3, read-out: MIC
[12] = Pseudomonas aeruginosa, read-out: MIC

Compound: C[C@@H](O)[C@H]1C(=O)N2C(C(=O)O)=C(SCCN=CN)C[C@H]12 [IP, Imipenem]
- MIC ([1]; Escherichia coli, ATCC25922): 0.125 µg/mL (≈ 0.418 µM)
- MIC ([2]; MB1410): 0.125 µg/mL (≈ 0.418 µM)
- MIC [3, 7]: 2 µg/mL (≈ 6.68 µM)

Compound: O=C(O)c1cn(C2CC2)c2cc(N3CCNCC3)c(F)cc2c1=O [Cip, Ciprofloxacin]
- MIC [1, 8]: 0.06 µg/mL (≈ 0.181 µM)
- MIC [3, 7]: 0.25 µg/mL (≈ 0.754 µM)

Compound: CN(C)c1cc(NC(=O)CNC(C)(C)C)c(O)c2c1C[C@H]1C[C@H]3[C@H](N(C)C)C(O)=C(C(N)=O)C(=O)[C@@]3(O)C(O)=C1C2=O [TG, Tigecicline]
- MIC [1, 9]: 0.5 µg/mL (≈ 0.854 µM)
- MIC [4]: 12 µg/mL (≈ 20.5 µM)
- MIC [3]: 12 µg/mL (≈ 20.5 µM)
- MIC [5]: 0.5 µg/mL (≈ 0.854 µM)

Compound: Gentamicin [Gm]
- MIC [1, 9]: 0.5 µg/mL
- MIC [3]: 1.5 µg/mL
- MIC [5]: 2 µg/mL

Compound: CO/N=C(\C(=O)N[C@@H]1C(=O)N2C(C(=O)O)=C(COC(C)=O)CS[C@H]12)c1csc(N)n1 [CTX, Cefotaxime]
- MIC [1, 8]: 0.5 µg/mL (≈ 1.1 µM)

Compound: CCCCCCCC(=O)N[C@@H](CCN)C(=O)N[C@H](C(=O)N[C@@H](CCN)C(=O)N[C@H]1CSSC[C@H]([C@@H](C)O)NC(=O)[C@H](CCN)NC(=O)[C@H](CCN)NC(=O)[C@H](CC(C)C)OC(=O)[C@@H](CC(C)C)NC(=O)[C@H](CCN)NC1=O)[C@@H](C)O [Example 7, Octanoyl-Dab-Thr-Dab-cyclo(S-S)[Cys-Dab-DLeu-OLe-Dab-Dab-Ttr]] (Octanoyl-[Dab]T[Dab]C[Dab][dL][Hica(2S)][Dab][Dab]; linker 4-C via X1)
- antibacterial activity (MIC) ([1]; ATCC 25922): 8 µg/mL
- antibacterial activity (MIC) ([2]; MB1410): 4 µg/mL
- antibacterial activity (MIC) ([4]; 36A): 4 µg/mL
- antibacterial activity (MIC) ([3]; ATCC 27853): 2 µg/mL
- antibacterial activity (MIC) ([5]; MB674): 1 µg/mL

Compound: Nonanoyl-Dab-Thr-Dab-cyclo(S-S)[Cys-Dab-DPhe-Leu-Dab-Dab-Cys] [compound 1]
- AS, Partial AS [6, 10]: 12
- Cell vacuolization, Partial AS [6, 10]: 0
- Cloudy swelling, Partial AS [6, 10]: 6
- Group Score (GS) [6, 10]: 4
- Mice found dead [6, 10]: none
- Tubular casts, Partial AS [6, 10]: 0
- Tubular dilaion, Partial AS [6, 10]: 6
- Tubular necrosis, Partial AS [6, 10]: 0
- nephrotoxicity in mice, in words ([6]; nephrotoxicity tests carried out in mice, statement of the background): showed nephrotoxicity

Compound: NCC[C@H](O)C(=O)N[C@@H]1C[C@H](N)[C@@H](O[C@H]2O[C@H](CN)[C@@H](O)[C@H](O)[C@H]2O)[C@H](O)[C@H]1O[C@H]1O[C@H](CO)[C@@H](O)[C@H](N)[C@H]1O [Ak, Amikacin]
- MIC [1, 8]: 2 µg/mL (≈ 3.42 µM)
- MIC [2, 11]: 6 µg/mL (≈ 10.2 µM)
- MIC [4, 12]: 2 µg/mL (≈ 3.42 µM)
- MIC [3, 7]: 4 µg/mL (≈ 6.83 µM)

Compound: C[C@H]1COc2c(N3CCN(C)CC3)c(F)cc3c(=O)c(C(=O)O)cn1c23 [Lev, Levofloxacin]
- MIC [1, 8]: 0.094 µg/mL (≈ 0.26 µM)
- MIC [3, 7]: 1.5 µg/mL (≈ 4.15 µM)

Compound: C[C@@H](O)[C@H]1C(=O)N2C(C(=O)O)=C(S[C@@H]3CN[C@H](C(=O)N(C)C)C3)[C@H](C)[C@H]12 [MP, Meropenem]
- MIC ([1]; Escherichia coli, ATCC25922): 0.125 µg/mL (≈ 0.326 µM)
- MIC [2, 11]: 0.094 µg/mL (≈ 0.245 µM)
- MIC [3, 7]: 0.38 µg/mL (≈ 0.991 µM)

Compound: CO/N=C(\C(=O)N[C@@H]1C(=O)N2C(C(=O)[O-])=C(C[N+]3(C)CCCC3)CS[C@H]12)c1csc(N)n1 [FEP, Cefepime]
- MIC [1, 8]: 0.06 µg/mL (≈ 0.125 µM)
- MIC [4, 12]: 8 µg/mL (≈ 16.6 µM)
- MIC [3, 7]: 1 µg/mL (≈ 2.08 µM)

Compound: CC(C)(O/N=C(\C(=O)N[C@@H]1C(=O)N2C(C(=O)[O-])=C(C[n+]3ccccc3)CS[C@H]12)c1csc(N)n1)C(=O)O [CAZ, Ceftacidime]
- MIC [1, 9]: 0.25 µg/mL (≈ 0.457 µM)
- MIC [3]: 0.5 µg/mL (≈ 0.915 µM)
